From patent US9989533B2, “Anti-TNF induced apoptosis (ATIA) diagnostic markers and therapies” (The United States of America, as represented by the …, priority 2009, dated 2018)
Read-outs that look alike come from different tables or passages of the source.

What was measured:
[1] = system: ATIA; format: cell-based
[2] = system: ATIA; experiment: effect of cyclohexamide on ATIA stability, blot (FIG. 28 bottom); format: cell-based, human
Experimental: (§1) FIG. 28 is two panels that show the effect of cyclohexamide on ATIA stability and cell apoptosis.
(§2) Experiments were performed with small chemical molecules to reduce ATIA levels in cancer cells. Examples of small molecules that can be used include, but are not limited to, cyclohexamide. […] Preferably, […] is administered locally to the tumor.

[3] = system: A172 cells; experiment: apoptosis (annexin positive cells) after cyclohexamide treatment under hypoxia (FIG. 28 top); format: cell-based, human; settings: in the presence of CHX
Experimental: as §1, §2

[4] = system: ATIA+/+ and ATIA−/− mice; format: in vivo; settings: GalN pretreatment, TNFα 2 μg/Kg intravenous, by 8 hr post-treatment
Experimental: (A) is a schematic diagram of ATIA knockout strategy. (B) and (C) show the generation of ATIA+/− ES cells (B) and ATIA+/− and ATIA−/− mice (C) was confirmed by PCR. […] Survival curves of wild-type (n=5) and ATIA KO (n=8) after TNF treatment. […] Tissue sections were analyzed by H&E (left panels) and TUNNEL (right panels) staining.
To determine whether ATIA is able to protect from TNF-induced apoptosis in vivo, a model of TNF-induced hepatitis (26, 27) was used. […] By 8 hr post-treatment, 20% of ATIA+/+ mice as compared to more than 85% of ATIA—mice were moribund (FIG. 5D). […] No other histological differences were noted. […] To further confirm this observation, we also examined TNF-induced apoptosis in ATIA−/− MEFs. Wild-type and ATIA−/− mouse embryonic fibroblast cell lines were established from 10.5-12.5 day old wild-type and ATIA knockout embryos. The cell lines were verified for the loss of ATIA by genomic PCR analysis and western blotting with the anti-ATIA antibody (data not shown). Cells were treated with TNF and varied doses of cyclohexamide (CHX) (FIG. 6A). […] Cell death induced by UV radiation or staurosporine is however, only moderately affected by the loss of ATIA (FIG. 6B).

[5] = system: A172, U87MG and 251 glioblastoma cells; experiment: TRAIL-induced cell death in glioblastoma cells (FIG. 19); format: cell-based; settings: ATIA-expressing human glioblastoma cells (A172) versus cells which do not express ATIA (U87MG); TRAIL 20 ng/ml, 24 h
Text: Next, the sensitivity of ATIA expressing cells to TRAIL-induced cell death was examined. FIG. 19, left panel, is a western blot showing the expression of ATIA in various glioblastoma cell types.

[Cl-].[Cl-].[Co+2] [CoCl2] was tested, and the ATIA protein expression [1] was “considerably increased”.

With C[C@@H]1C[C@@H]([C@H](O)CC2CC(=O)NC(=O)C2)C(=O)[C@@H](C)C1 [cycloheximide] the “effect on ATIA level” value ([2]; 0.5 ug, A172 Cells) was “causes the decrease of ATIA”, the “effect on ATIA levels” value ([2]; low levels (e.g. 0.1 μg-1.0 μg), tumor cells) was “reduces ATIA levels” and the apoptosis under hypoxia [3] was “undergo apoptosis”.

For TNFα, the moribund mice ([4]; ATIA+/+ mice) was 20% and the moribund mice ([4]; ATIA−/− mice) was “more than 85%”.

B1: TRAIL: tumour necrosis factor-related apoptosis-inducing ligand (protein, UniProt P50591 1-281, looked up)
Tumor necrosis factor ligand …: MAMMEVQGGPSLGQTCVLIVIFTVLLQSLCVAVTYVYFTNELKQMQDKYSKSGIACFLKEDDSYWDPNDEESMNSPCWQVKWQLRQLVRKMILRTSEETISTVQEKQQNISPLVRERGPQRVAAHITGTRGRSNTLSSPNSKNEKALGRKINSWESSRSGHSFLSNLHLRNGELVIHEKGFYYIYSQTYFRFQEEIKENTKNDKQMVQYIYKYTSYPDPILLMKSARNSCWSKDAEYGLYSIYQGGIFELKENDRIFVSVTNEHLIDMDHEASFFGAFLVG
For B1, the “sensitivity to TRAIL-induced cell death” value [5] was “much more sensitive to TRAIL-induced cell death”.
